Laboratory results reported in patent US20140038920A1, “TFEB PHOSPHORYLATION INHIBITORS AND USES THEREOF” (FONDAZIONE TELETHON, priority 2011, published 2014).
Like-named read-outs stand apart in the source and are kept apart here.

What was measured:
TFEB = assay: High content TFEB-GFP nuclear translocation assay; format: cell-based; settings: Homo sapiens, TFEB-GFP HeLa cells
Protocol: Immunoblotting of protein extracts isolated from HeLa cells treated overnight, as indicated. Membranes were probed with antibodies for p-T202/Y204-ERK1/2, ERK1/2, p-T389-S6K, and S6K to measure ERK and mTORC1 activities. […] FLAG immunoblotting of cytosolic and nuclear fractions isolated from TFEB-3×FLAG HeLa cells cultured in amino acid-free media and subsequently stimulated as indicated for at least 3 h. Correct subcellular fractionation was verified with H3 and tubulin antibodies. […] After 3 h at 37° C. in RPMI medium containing one of each of the compounds, the cells were washed, fixed, and stained with DAPI and photographed by using confocal automated microscopy (Opera high content system, Perkin Elmer). […] Scale bars represent 30 μm. […] The EC50 for each compound was calculated using Prism software (see Materials and Methods for details). […] Antibody used were p-T389-S6K, S6K and FLAG. […] HeLa cells stably expressing Flag-3×TFEB were infected with lentiviruses encoding a Short hairpin (Sh-) RNA targeting luciferase (control) or RagC and RagD mRNAs. […] TFEB localization was detected with a FLAG antibody, whereas tubulin and H3 were used as controls for the cytosolic and nuclear fraction, respectively; levels of S6K phosphorylation were used to test RagC and RagD knockdown efficiency.
After 3 hours at 37° C. in RPMI medium cells were washed, fixed, and stained with DAPI. For the acquisition of the images, ten pictures per each well of the 384-well plate were taken by using confocal automated microscopy (Opera high content system, Perkin Elmer). A dedicated script was developed to perform the analysis of TFEB localization on the different images (Acapella software, Perkin Elmer). The script calculates the ratio value resulting from the average intensity of nuclear TFEB-GFP fluorescence divided by the average of the cytosolic intensity of TFEB-GFP fluorescence. The results were normalized using negative (RPMI medium) and positive (HBSS starvation) control samples in the same plate. The data are represented by the percentage of nuclear translocation at the different concentrations of each compound using Prism software (GraphPad software). The EC50 for each compound was calculated using non-linear regression fitting (Prism software).
In order to find additional small molecules able to induce the translocation of TFEB from the cytosol to the nucleus, the applicants developed a cell-based high content assay using stable HeLa cells overexpressing TFEB fused to the green fluorescent protein (TFEB-GFP). In the assay imaging of treated cells is acquired by an automated confocal microscope (OPERA system) and the analysis of those images with Acapella image software calculates the ratio of the average of fluorescence intensity of TFEB-GFP between the cytosol and nucleus of the cell (see Materials and methods for details). […] They tested ten concentrations for each inhibitor.

[1] = tested on: glycosaminoglycan (GAG) accumulation in MSD NSCs; assay: Alcian blue staining of GAGs in differentiated NSCs from MSD mice (FIG. 22); format: cell-based, mouse; settings: glia-differentiated MSD NSCs, 10 nM, 24 hours, versus DMSO
Protocol: After 24 hours, the GAG content was determined by alcian blue (AB) staining. Both torins were able to reduce GAG staining in MSD treated cells as compared to DMSO treated cells.
Neuronal progenitor cells were isolated from cortices of WT and MSD pups (P0) by tissue homogenization using the neural tissue dissociation kit and separation using magnetic sorting of cells expressing the stem cell marker prominin-1 (Miltenyi Biotec Srl). Neuronal progenitor cells were maintained in ESGRO complete medium (Hyclone) in the presence of EGF and FGF2 growth factors (Prepotech). Where indicated, neural stem cells (NSCs) were differentiated by removing growth factors and incubate in ESGRO medium containing 2% of serum for at least 48 h.
Neuronal progenitor cells were isolated from cortices of WT and MSD pups (P0) by using standard protocols. Neuronal stem cells (NSCs) were fixed in Methacarn (60% Methanol; 10% Acetic Acid; 30% Chloroform) for 15 min at RT. After washing the cells were stained for 3 hours in 1% alcian blue pH 2.5, rinsed in 0.3% acetic acid and water and mounted in 100% for visualization.

[2] = tested on: vacuolization in MSD cells; assay: Electron microscopy of vacuolization in differentiated MSD NSCs (FIG. 23); format: cell-based, mouse
Protocol: Differentiated NSC were fixed on glutaraldehyde and processed for standard electron microscopy.
Cells were washed with PBS, fixed in 0.05% glutaraldehyde, and dissolved in 0.2 M Hepes buffer (pH 7.4) for 30 min at room temperature. The cells were then post-fixed for 2 h in OsO4. After dehydration in graded series of ethanol, the cells were embedded in Epon 812 (Fluka) and polymerized at 60° C. for 72 h. Thin sections were cut at the Leica EM UC6, counterstained with uranyl acetate and lead citrate.

[3] = tested on: Multiple Sulfatase Deficiency (MSD) mice; assay: Liver GAG accumulation by alcian blue staining in treated MSD mice (FIG. 24); format: in vivo; settings: oral gavage 0.3 mg/day/mouse in 50% PEG400, 10 days, n=3
Protocol: FIG. 24 Torin 2 reduces GAG accumulation in the liver of MSD mice. MSD mice were treated with placebo (MSD—750) or torin2 (MSD—727) during 10 days (oral administration; 0.3 mg torin 2/day/mouse in 50% PEG400). After the treatment liver tissues were collected and GAG accumulation was determined by alcian blue staining (black spots).
(§1) Multiple Sulfatase Deficiency (MSD) mice were treated with placebo (n=3) or torin 2 (n=3) during 10 days (gavage-oral administration; 0.3 mg torin 2/day/mouse in 50% PEG400). […] After the treatment liver tissues were collected and GAG accumulation was determined by alcian blue staining.
Sections of paraffin-embedded liver tissue were stained with 1% Alcian blue (Sigma-Aldrich) and counterstained with Nuclear-Fast red (Sigma-Aldrich).

[4] = format: in vivo; settings: MSD mice, oral gavage 0.3 mg/day/mouse, 10 days
Protocol: as §1

Nc1ccc(-c2ccc3ncc4ccc(=O)n(-c5cccc(C(F)(F)F)c5)c4c3c2)cn1 [TORIN 2]
EC50 (TFEB; 3 h, ten concentrations 2.54 nM to 50 μM (FIG. 19D), read-out: EC50, TFEB nuclear translocation): 1670 nM | EC50 (TFEB; mobilization of cytosolic TFEB to the nucleus, 3 h at 37° C. in RPMI, ten concentrations 50 μM to 2.54 nM, 4 runs, read-out: Average EC50): < 7000 nM | alcian blue-stained GAGs [1]: striking reduction | cellular vacuolization [2]: reduces vacuolization | GAG staining in liver [3]: significant reduction | body weight after treatment [4]: no weight differences | survival [4]: all the mice treated survived
